{"source": "patent US12440498B2", "about": "(priority 2020, dated 2025)", "key": {"A/H1N1 virus": {"tested_on": "A/H1N1 virus", "test": "microbe, parasite or virus in culture", "type": "cell-based, influenza A virus", "conditions": "Influenza A virus, H1N1, MDCK, read-out: IC50 baloxavir (active form)"}, "[1]": {"tested_on": "influenza virus with M431I substitution in PB2", "conditions": "cited from earlier work"}, "[2]": {"tested_on": "A/H1N1 I38T (I38T mutation on the PA subunit, baloxavir-resistant)", "type": "cell-based, influenza A virus"}}, "data": [{"smiles": "O=C1c2c(O)c(=O)ccn2N([C@@H]2c3ccccc3SCc3c2ccc(F)c3F)[C@@H]2COCCN12", "note": "[baloxavir, baloxavir acid]", "values": [{"measurement": "IC50", "setting": "A/H1N1 virus", "value": 0.2, "unit": "nM"}]}, {"smiles": "O=C(O)[C@H]1C2CCC(CC2)[C@@H]1Nc1nc(-c2c[nH]c3ncc(F)cc23)ncc1F", "note": "[pimodivir]", "values": [{"measurement": "decrease in sensitivity", "setting": "[1]", "value": "around 60 fold"}]}, {"smiles": "COc1ccc([C@@H]2Sc3ccccc3N(CCN(C)C)C(=O)[C@@H]2OC(C)=O)cc1.Cl", "note": "[diltiazem]", "values": [{"measurement": "transepithelial resistance (TEER), integrity of infected epithelia", "setting": "[2]", "value": "remain stable"}]}]}
